# ChEMBL document CHEMBL3044852, “Synthesis of N-hydroxycinnamoyl amino acid ester analogues and their free radical scavenging and antioxidative activities” (Med Chem Res, 2012)
# Key:
# [1] = Antioxidant activity against AAPH-induced hemolysis in Homo sapiens (human) RBC assessed as inhibition time at 10 uM by spectrophotometry; type: functional, Erythrocyte
# [2] = Antioxidant activity assessed as DPPH scavenging activity after 30 min by UV-vis spectroscopy; type: functional
SMILES,IC50 [2] [µM],Time [1] [min]
CCOC(=O)CNC(=O)/C=C/c1ccc(O)c(OC)c1,64.6,193
CCOC(=O)CNC(=O)/C=C/c1ccc(O)cc1,> 200,138
CCOC(=O)[C@H](Cc1ccccc1)NC(=O)/C=C\c1ccc(O)cc1,> 200,
COC(=O)[C@H](Cc1ccc(O)cc1)NC(=O)/C=C/c1ccc(O)cc1,> 200,
CCOC(=O)[C@@H](NC(=O)/C=C/c1ccc(O)c(OC)c1)C(C)C,87.2,
O=C(O)/C=C/c1ccc(O)cc1 [COUMARIC ACID],> 200,
CCOC(=O)/C=C/c1ccc(O)c(OC)c1 [ETHYL FERULATE],150,150
CCOC(=O)/C=C/c1ccc(O)cc1 [ETHYL P-COUMARATE],> 200,

# The next compounds have a lower IC50 [2] than those just listed; values first:
IC50 [2] [µM],SMILES,Time [1] [min]
52.4,CCOC(=O)[C@H](Cc1ccccc1)NC(=O)/C=C/c1ccc(O)c(OC)c1,198
50.1,COc1cc(/C=C/C(=O)O)ccc1O [FERULATE],148
49,CCOC(=O)/C=C/c1ccc(O)c(O)c1 [ETHYL CAFFEATE],
29.6,O=C1O[C@H]([C@@H](O)CO)C(O)=C1O [ASCORBIC ACID],
18.2,O=C(O)/C=C/c1ccc(O)c(O)c1 [CAFFEIC ACID],
12.8,CCOC(=O)CNC(=O)/C=C/c1ccc(O)c(O)c1,180
1.45,CCOC(=O)[C@H](Cc1ccccc1)NC(=O)/C=C/c1ccc(O)c(O)c1,
